The source of these data is publication PMC9015998, “Non-clinical Pharmacology of YTX-7739: a Clinical Stage Stearoyl-CoA Desaturase Inhibitor Being Developed for Parkinson’s Disease” (Molecular Neurobiology, 2022).

The assay concerns the target T1, rat SCD (Rattus norvegicus, UniProt P07308).
T1 construct: rat liver microsomes (RLMs) isolated from rats fed a […] to induce SCD expression; from tissue; host or cells: rat liver microsomes (SCD-induced by diet); assay run at PureHoney Technologies
T1 sequence (P07308 1-358): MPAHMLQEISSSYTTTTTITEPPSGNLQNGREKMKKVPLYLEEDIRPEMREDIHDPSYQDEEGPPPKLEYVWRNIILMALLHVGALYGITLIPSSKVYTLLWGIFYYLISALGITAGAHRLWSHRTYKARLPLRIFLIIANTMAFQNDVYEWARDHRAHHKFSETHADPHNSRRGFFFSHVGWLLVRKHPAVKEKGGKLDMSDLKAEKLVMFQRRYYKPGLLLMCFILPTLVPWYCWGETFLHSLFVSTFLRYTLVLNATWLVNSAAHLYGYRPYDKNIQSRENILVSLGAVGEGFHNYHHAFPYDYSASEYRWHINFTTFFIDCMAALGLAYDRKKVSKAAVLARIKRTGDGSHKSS
The assay is described as follows: SCD enzyme assay in SCD-induced rat liver microsomes (RLM). Format: biochemical. Conditions: C17:0-CoA substrate, Rapid-Fire mass spectrometry. The method, then: The SCD biochemical assay has been described previously (Vincent et al., 2018). In brief, SCD-induced rat liver microsomes (RLM) were isolated from […] fed a high-carbohydrate, low-fat diet for 5 days. RLM were then used in an optimized biochemical assay using C17:0-CoA as a substrate (Avanti Lipids, #870,717) and Rapid-Fire mass spectrometry to quantify conversion to C17:1-CoA. The RLM assay was performed at PureHoney Technologies (Billerica, MA).
An iterative medicinal chemistry campaign identified YTX-7739 as a SCD inhibitor that reduced conversion of saturated to unsaturated fatty acids (Fig. 1A). The potency of YTX-7739 in inhibiting SCD activity was initially assessed in rat liver microsomes (RLMs) isolated from rats fed a […] to induce SCD expression. RLMs were then used in conjunction with a synthetic C17:0-CoA SCD substrate and rapid-fire mass spectrometry to assess enzyme activity.
Fig. 1 Characterization of in vitro properties of YTX-7739. A SCD reaction converting CoA-linked saturated to monounsaturated fatty acids of 16 (palmitoleic acid) or 18 (oleic acid) carbons in length. […] B YTX-7739 and a reference SCD inhibitor (CAY10566) was tested in a biochemical assay using SCD-induced RLM and C17:0-CoA with Rapid-Fire mass spectrometry as an analytical readout. […] The calculated IC50 values are inset. […]
Background: Liver microsomes are a subcellular fraction often used to study metabolism.

Structures are written as SMILES.

In general, IC50 refers to the concentration that inhibits the measured activity by half. Read a low IC50 as higher potency. For `Cc1nnc(-c2ccc(N3CCC(Oc4cc(F)ccc4Cl)CC3)nn2)o1` [CAY10566], the IC50 was 1.1 nM.
